In US10131652B2, “Pyrimidinyloxy benzene derivatives as herbicides” (E. I. DU PONT DE NEMOURS AND COMPANY, priority 2014, dated 2018):

Experiments:
Type in all cases: in vivo
wild oat (Avena fatua) = assay: Test D postemergence plant response
Summary of the method: (§1)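 Visual 0–100 rating vs controls (0 = no effect, 100 = complete control), scored 13–15 d after postemergence spray. Plants 1- to 4-leaf stage (2–18 cm), potted in peat/vermiculite mix, kept in greenhouse.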

kochia (Kochia scoparia) [1] = assay: Test D postemergence plant response
Summary of the method: as §1

[2] = tested on: ragweed (common ragweed, Ambrosia elatior); assay: Test B pre-/postemergence plant response
Summary of the method: (§2)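 Steps: plant seeds in loam soil–sand mix; spray soil preemergence, and in parallel spray 2–10 cm one- to two-leaf plants postemergence; hold ~10 days in greenhouse; visually rate injury against untreated controls (0 = no effect, 100 = complete control).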

[3] = tested on: Italian ryegrass (Lolium multiflorum); assay: Test B pre-/postemergence plant response
Summary of the method: as §2

kochia (Kochia scoparia) [4] = assay: Test B pre-/postemergence plant response
Summary of the method: as §2

[5] = 16 g ai/ha, scale 0 to 100 (0 no effect, 100 complete control)
[6] = 31 g ai/ha, scale 0 to 100 (0 no effect, 100 complete control)
[7] = 62 g ai/ha, scale 0 to 100, 0 no effect, 100 complete control
[8] = 125 g ai/ha, scale 0 to 100, 0 no effect, 100 complete control
[9] = 125 g ai/ha, postemergence, 0 to 100 scale, 0 no effect, 100 complete control
[10] = Postemergence, 500 g ai/ha, 0 to 100 scale (0 no effect, 100 complete control)
[11] = Preemergence, 125 g ai/ha, 0 to 100 scale where 0 is no effect and 100 is complete control
[12] = Preemergence, 500 g ai/ha, 0 to 100 scale where 0 is no effect and 100 is complete control
[13] = Postemergence, 1000 g ai/ha, 0 to 100 scale (0 no effect, 100 complete control)
[14] = Preemergence, 1000 g ai/ha, 0 to 100 scale (0 no effect, 100 complete control)
[15] = 31 g ai/ha, Postemergence, 0 to 100 scale, 0 no effect, 100 complete control
[16] = Preemergence, 31 g ai/ha, 0 to 100 scale (0 no effect, 100 complete control)
[17] = 31 g ai/ha, Preemergence, 0 to 100 scale where 0 is no effect and 100 is complete control
[18] = Preemergence, 125 g ai/ha, 0 to 100 scale (0 no effect, 100 complete control)

Structure (SMILES) | Oat, Wild plant response rating (wild oat (Avena fatua); [5]) | Oat, Wild plant response rating (wild oat (Avena fatua); [6]) | Plant response rating, Oat, Wild (wild oat (Avena fatua); [7]) | Plant response rating, Oat, Wild (wild oat (Avena fatua); [8]) | Kochia plant response rating (kochia (Kochia scoparia) [1]; [5]) | Kochia plant response rating (kochia (Kochia scoparia) [1]; [6]) | Plant response rating, Kochia (kochia (Kochia scoparia) [1]; [7]) | Plant response rating, Kochia (kochia (Kochia scoparia) [1]; [8]) | Plant response rating, Ragweed [2, 9] | Plant response rating, Ragweed [2, 10] | Plant response rating, Ragweed [2, 11] | Plant response rating, Ragweed [2, 12] | Plant response rating, Ryegrass, Italian [3, 9] | Plant response rating, Ryegrass, Italian [3, 10] | Plant response rating, Ryegrass, Italian [3, 11] | Plant response rating, Kochia (kochia (Kochia scoparia) [4]; [9]) | Plant response rating, Kochia (kochia (Kochia scoparia) [4]; [11]) | Plant response rating, Ragweed [2, 15] | Plant response rating, Ryegrass, Italian [3, 15] | Plant response rating, Kochia (kochia (Kochia scoparia) [4]; [15]) | also measured
Cn1nnc(-c2ccccc2Oc2ncc(Br)cn2)n1 [Compound 50] | 0 | 0 | 0 | 0 | 0 | 0 | 5 | 15 | 20 | 60 | 0 | 50 | 0 | 50 | 20 | 60 | 10 | – | – | – | Plant response rating, Ryegrass, Italian [3, 12]: 50; Plant response rating, Kochia (kochia (Kochia scoparia) [4]; [10]): 80; Plant response rating, Kochia (kochia (Kochia scoparia) [4]; [12]): 60
FC(F)(F)c1cc(-c2ccccc2Oc2ncc(Cl)cn2)ncn1 [Compound 54] | 0 | 0 | 5 | 5 | 50 | 55 | 80 | 80 | 50 | 60 | 60 | 70 | 30 | 60 | 30 | 100 | 80 | – | – | – | Plant response rating, Ryegrass, Italian [3, 12]: 60; Plant response rating, Kochia (kochia (Kochia scoparia) [4]; [10]): 100; Plant response rating, Kochia (kochia (Kochia scoparia) [4]; [12]): 100
FCc1cc(-c2c(F)cccc2Oc2ncc(Cl)cn2)no1 [Compound 57] | 0 | 0 | 5 | 15 | 75 | 90 | 95 | 100 | – | – | – | – | – | – | – | – | – | – | – | – | Plant response rating, Ragweed [2, 13]: 100; Plant response rating, Ragweed [2, 14]: 90; Plant response rating, Ryegrass, Italian [3, 13]: 80; Plant response rating, Ryegrass, Italian [3, 14]: 80; Plant response rating, Kochia (kochia (Kochia scoparia) [4]; [13]): 90; Plant response rating, Kochia (kochia (Kochia scoparia) [4]; [14]): 100
Cc1cc(-c2ccccc2Oc2ncc(Cl)cn2)no1 [Compound 60] | 5 | 0 | 0 | 5 | 50 | 50 | 55 | 90 | 60 | 90 | 20 | 50 | 0 | 80 | 0 | 90 | 90 | – | – | – | Plant response rating, Ryegrass, Italian [3, 12]: 30; Plant response rating, Kochia (kochia (Kochia scoparia) [4]; [10]): 100; Plant response rating, Kochia (kochia (Kochia scoparia) [4]; [12]): 100
FC(F)(F)c1cc(-c2ccccc2Oc2ncc(Cl)cn2)on1 [Compound 63, 5-chloro-2-[2-[3-(trifluoromethyl)-5-isoxazolyl]phenoxy]pyrimidine] | – | – | – | – | – | – | – | – | – | – | – | – | – | – | – | – | – | – | – | – | pest or weed control at 16 g/ha (wild oat (Avena fatua); Avena fatua, post-emergence, 16 g ai/ha, scale 0 to 100 (0 no effect, 100 complete control), read-out: Oat, Wild plant response rating): 0%; pest or weed control at 31 g/ha (wild oat (Avena fatua); Avena fatua, post-emergence, 31 g ai/ha, scale 0 to 100 (0 no effect, 100 complete control), read-out: Oat, Wild plant response rating): 20%; pest or weed control at 62 g/ha (wild oat (Avena fatua); Avena fatua, post-emergence, 62 g ai/ha, scale 0 to 100, 0 no effect, 100 complete control, read-out: Plant response rating, Oat, Wild): 25%; pest or weed control at 125 g/ha (wild oat (Avena fatua); Avena fatua, post-emergence, 125 g ai/ha, scale 0 to 100, 0 no effect, 100 complete control, read-out: Plant response rating, Oat, Wild): 35%; pest or weed control at 16 g/ha (kochia (Kochia scoparia) [1]; Bassia scoparia, post-emergence, 16 g ai/ha, scale 0 to 100 (0 no effect, 100 complete control), read-out: Kochia plant response rating): 90%; pest or weed control at 31 g/ha (kochia (Kochia scoparia) [1]; Bassia scoparia, post-emergence, 31 g ai/ha, scale 0 to 100 (0 no effect, 100 complete control), read-out: Kochia plant response rating): 95%; pest or weed control at 62 g/ha (kochia (Kochia scoparia) [1]; Bassia scoparia, post-emergence, 62 g ai/ha, scale 0 to 100, 0 no effect, 100 complete control, read-out: Plant response rating, Kochia): 98%; pest or weed control at 125 g/ha (kochia (Kochia scoparia) [1]; Bassia scoparia, post-emergence, 125 g ai/ha, scale 0 to 100, 0 no effect, 100 complete control, read-out: Plant response rating, Kochia): 100%
COc1cccc(Oc2ncc(Cl)cn2)c1-c1cc(C(F)(F)F)no1 [Compound 104] | – | – | – | – | – | – | – | – | 10 | – | 0 | – | 30 | – | 10 | 80 | 10 | 10 | 0 | 50 | Ragweed plant response rating [2, 16]: 0; Ryegrass, Italian plant response rating [3, 16]: 0; Kochia plant response rating (kochia (Kochia scoparia) [4]; [16]): 0
Fc1ccc(Oc2ncc(Cl)cn2)c(-c2cc(C(F)F)on2)c1F [Compound 113] | 10 | 15 | 10 | 25 | 90 | 100 | 100 | 100 | 80 | – | – | – | 70 | – | – | 100 | 100 | 50 | 20 | 100 | Plant response rating, Ragweed [2, 17]: 30; Plant response rating, Ryegrass, Italian [3, 17]: 10; Plant response rating, Kochia (kochia (Kochia scoparia) [4]; [17]): 100
FC(Cl)c1cc(-c2ccccc2Oc2ncc(Cl)cn2)no1 (stereo not shown) [Compound 116] | 5 | 5 | 10 | 15 | 100 | 100 | 100 | 100 | 40 | – | – | – | 30 | – | – | 90 | 60 | 20 | 0 | 90 | Plant response rating, Ragweed [2, 17]: 0; Plant response rating, Ryegrass, Italian [3, 17]: 0; Plant response rating, Kochia (kochia (Kochia scoparia) [4]; [17]): 60
Fc1cccc(Oc2ncc(Br)cn2)c1-c1cc(C(F)F)on1 [Compound 118] | 5 | 10 | 15 | 50 | 95 | 95 | 95 | 100 | 50 | – | – | – | 80 | – | – | 100 | 100 | 30 | 20 | 100 | Plant response rating, Ragweed [2, 17]: 20; Plant response rating, Ryegrass, Italian [3, 17]: 20; Plant response rating, Kochia (kochia (Kochia scoparia) [4]; [17]): 80
FC(F)c1cc(-c2c(Cl)cccc2Oc2ncc(Cl)cn2)on1 [Compound 120] | 35 | 40 | 55 | 60 | 98 | 100 | 100 | 100 | 70 | – | – | – | 90 | – | – | 90 | 90 | 40 | 30 | 90 | Plant response rating, Ragweed [2, 17]: 10; Plant response rating, Ryegrass, Italian [3, 17]: 40; Plant response rating, Kochia (kochia (Kochia scoparia) [4]; [17]): 80
N#Cc1cccc(Oc2ncc(Cl)cn2)c1-c1cc(C(F)(F)F)ccn1 [Compound 158, 5-chloro-2-[3-cyano-2-[4-(trifluoromethyl)-2-pyridinyl]phenoxy]pyrimidine] | – | – | – | – | – | – | – | – | 0 | 30 | – | 20 | 0 | 70 | – | 70 | – | – | – | – | Ragweed plant response rating [2, 18]: 0; Ryegrass, Italian plant response rating [3, 18]: 0; Plant response rating, Ryegrass, Italian [3, 12]: 20; Plant response rating, Kochia (kochia (Kochia scoparia) [4]; [10]): 90; Kochia plant response rating (kochia (Kochia scoparia) [4]; [18]): 100; Plant response rating, Kochia (kochia (Kochia scoparia) [4]; [12]): 100
